For data set [1], the target named is T1, Tryptase-b2 (Homo sapiens, UniProt P20231).
T1 construct: purchased Reaction Biology Corp
Put plainly: Protease activity array (Reaction Biology Corp), Tryptase-b2. It is filed as biochemical. On the procedure:
(§1) Avoralstat can inhibit Tryptase-b2 and -g1 as well as it inhibits KLKB1 in vitro. Avoralstat was assessed for inhibition against a panel of recombinant proteases including 2 Tryptases (Tryptase-b2 and -g1) and KLKB1 by commercial services from Reaction Biology Corp. The Reaction Biology Corp profile tested in a 10-dose IC50, with a dose range from 38 pM to 10 μM, against 70 proteases in FIG. 1E.
(§2) Protease activity array. […] The protease activities were monitored as a time-course measurement of the increase in fluorescence signal from fluorescently labeled peptide substrate, and initial linear portion of slope (signal/min) was analyzed.

The target in data set [2] is T2, Kallikrein-14 (Homo sapiens, UniProt Q9P0G3).
T2 construct: purchased Reaction Biology Corp
T2 sequence (Q9P0G3 25-251): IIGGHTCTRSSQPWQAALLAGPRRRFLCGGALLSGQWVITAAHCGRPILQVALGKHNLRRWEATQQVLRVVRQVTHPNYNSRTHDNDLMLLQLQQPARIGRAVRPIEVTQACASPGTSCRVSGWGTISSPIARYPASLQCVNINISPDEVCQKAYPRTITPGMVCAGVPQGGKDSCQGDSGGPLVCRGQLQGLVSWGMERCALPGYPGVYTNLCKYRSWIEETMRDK
The experiment in a line: Protease activity array (Reaction Biology Corp), Kallikrein-14. It is filed as biochemical. Conditions: recombinant protease, 10-dose IC50, fluorescently labeled peptide substrate. On the procedure:
as §1, §2

In data set [3] the target is T3, Tryptase-g1 (Homo sapiens, UniProt Q9NRR2).
T3 construct: purchased Reaction Biology Corp
The experiment in a line: Protease activity array (Reaction Biology Corp), Tryptase-g1. It is filed as biochemical. On the procedure:
as §1, §2

For data set [4] the following is noted: oral drug, phase III clinical trials for hereditary angioedema; cited from earlier work.
Data set [5] addresses T4, KLKB1 (Homo sapiens, UniProt P03952).
T4 construct: purchased Reaction Biology Corp
Put plainly: Protease activity array (Reaction Biology Corp), KLKB1. It is filed as biochemical. The protocol:
as §1, §2

The target in data set [6] is T5, Kallikrein-12 (Homo sapiens, UniProt Q9UKR0).
T5 construct: purchased Reaction Biology Corp
T5 sequence (Q9UKR0 18-248): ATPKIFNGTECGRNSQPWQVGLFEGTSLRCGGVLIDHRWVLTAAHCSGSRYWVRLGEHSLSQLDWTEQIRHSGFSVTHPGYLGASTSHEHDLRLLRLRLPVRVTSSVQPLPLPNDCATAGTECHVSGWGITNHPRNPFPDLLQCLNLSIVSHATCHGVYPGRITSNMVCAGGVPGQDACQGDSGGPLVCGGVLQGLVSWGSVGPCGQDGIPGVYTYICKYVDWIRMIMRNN
The experiment in a line: Protease activity array (Reaction Biology Corp), Kallikrein-12. Type of data set: biochemical. The following applies: recombinant protease, 10-dose IC50, fluorescently labeled peptide substrate. On the procedure:
as §1, §2

T4 sequence (P03952 20-638): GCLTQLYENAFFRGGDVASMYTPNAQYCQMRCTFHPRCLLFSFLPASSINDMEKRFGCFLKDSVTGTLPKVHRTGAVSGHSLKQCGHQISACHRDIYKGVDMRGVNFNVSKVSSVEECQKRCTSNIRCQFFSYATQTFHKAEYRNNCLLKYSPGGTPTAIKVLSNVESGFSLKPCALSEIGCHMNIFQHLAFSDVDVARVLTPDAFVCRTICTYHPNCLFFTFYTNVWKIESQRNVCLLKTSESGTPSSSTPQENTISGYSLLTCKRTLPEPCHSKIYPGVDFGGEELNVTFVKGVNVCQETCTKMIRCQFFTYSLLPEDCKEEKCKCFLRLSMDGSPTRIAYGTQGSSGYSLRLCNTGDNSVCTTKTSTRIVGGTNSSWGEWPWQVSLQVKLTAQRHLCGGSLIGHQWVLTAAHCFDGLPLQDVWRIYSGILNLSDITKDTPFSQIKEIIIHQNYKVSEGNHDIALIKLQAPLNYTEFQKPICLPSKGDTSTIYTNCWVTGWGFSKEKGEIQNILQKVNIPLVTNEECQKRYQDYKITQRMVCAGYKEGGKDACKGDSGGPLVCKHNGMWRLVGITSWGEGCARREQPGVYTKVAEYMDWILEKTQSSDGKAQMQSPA
T1 sequence (P20231 31-275): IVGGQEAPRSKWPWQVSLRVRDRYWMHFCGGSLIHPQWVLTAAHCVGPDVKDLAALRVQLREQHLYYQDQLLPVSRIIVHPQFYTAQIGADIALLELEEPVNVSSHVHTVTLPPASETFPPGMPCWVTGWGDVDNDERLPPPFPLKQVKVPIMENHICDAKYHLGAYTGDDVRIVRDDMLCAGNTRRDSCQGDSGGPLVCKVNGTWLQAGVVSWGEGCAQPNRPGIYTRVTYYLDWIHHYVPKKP
T3 sequence (Q9NRR2 20-321): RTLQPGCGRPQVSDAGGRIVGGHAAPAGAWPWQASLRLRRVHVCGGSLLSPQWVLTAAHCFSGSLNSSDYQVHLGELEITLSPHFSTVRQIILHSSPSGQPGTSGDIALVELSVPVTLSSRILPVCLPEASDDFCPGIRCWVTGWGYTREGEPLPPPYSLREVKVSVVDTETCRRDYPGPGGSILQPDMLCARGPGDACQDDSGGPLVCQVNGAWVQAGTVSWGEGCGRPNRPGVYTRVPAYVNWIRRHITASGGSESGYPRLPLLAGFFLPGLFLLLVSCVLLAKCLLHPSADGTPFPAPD

`C=Cc1cc(C(=O)Nc2ccc(C(=N)N)cc2)c(-c2ccc(C(=O)NCC3CC3)nc2C(=O)O)cc1OC` [Avoralstat]: the IC50 came out at 0.99 nM in data set [1], 0.93 nM in data set [3] and 0.13 nM in data set [5]. For the same molecule, the inhibition entry in data set [2] and in data set [6] was “sub-nanomolar inhibition” each time. Further, in data set [4], the clinical safety entry is on record as “clinically proven to be safe”.

The values are drawn from patent US20240226076A1, “Inhibitors of Tryptases and Their Use in Treating Allergies” (The Board of Trustees of the Leland Stanford Junior …, priority 2021, published 2024).
